In ChEMBL document CHEMBL6103564, “Selective Degradation of TEADs by a PROTAC Molecule Exhibited Robust Anticancer Efficacy In Vitro and In Vivo” (J Med Chem, 2025):

How the values were obtained:
in vivo [1] = conditions: ICR, mouse, iv, 5 mg/kg
in vivo [2] = conditions: ICR, mouse, iv, 5 mg/kg; remark: listed apart in the source
in vivo [3] = conditions: ICR, mouse, iv, 5 mg/kg; remark: listed apart in the source
in vivo [4] = conditions: ICR, mouse, iv, 5 mg/kg; remark: listed apart in the source
in vivo [5] = conditions: ICR, mouse, iv, 5 mg/kg; remark: listed apart in the source
in vivo [6] = conditions: ICR, mouse, iv, 5 mg/kg; remark: listed apart in the source
in vivo [7] = conditions: ICR, mouse, iv, 5 mg/kg; remark: listed apart in the source
in vivo [8] = conditions: ICR, mouse, ip, 10 mg/kg
in vivo [9] = conditions: ICR, mouse, ip, 10 mg/kg; remark: listed apart in the source
in vivo [10] = conditions: ICR, mouse, ip, 10 mg/kg; remark: listed apart in the source
in vivo [11] = conditions: ICR, mouse, ip, 10 mg/kg; remark: listed apart in the source
in vivo [12] = conditions: ICR, mouse, ip, 10 mg/kg; remark: listed apart in the source
in vivo [13] = conditions: ICR, mouse, po, 10 mg/kg
in vivo [14] = conditions: ICR, mouse, po, 5 mg/kg
in vivo [15] = conditions: ICR, mouse, po, 5 mg/kg; remark: listed apart in the source
in vivo [16] = conditions: ICR, mouse, po, 5 mg/kg; remark: listed apart in the source
in vivo [17] = conditions: ICR, mouse, po, 5 mg/kg; remark: listed apart in the source

COCCOc1ccc(C(N)=O)c(-c2c(Cl)ccc3c2C[C@@](CNCCC2CCN(c4ccc5c(c4)C(=O)N(C4CCC(=O)NC4=O)C5=O)CC2)(c2ccccc2)O3)c1F (some centres not stated)
half-life (in vivo [1]): 1.94 h | AUC(0-t) (in vivo [2]): 1220 ng·h/mL | AUC(0-inf) (in vivo [3]): 1240 ng·h/mL | Vd (in vivo [4]): 11.5 L/kg | clearance (in vivo [5]): 70.6 mL/min/kg | Vd (in vivo [6]): 3.79 L/kg | MRT (in vivo [7]): 0.69 h | half-life (in vivo [8]): 2.68 h | Cmax (in vivo [9]): 1160 ng/mL | AUC(0-t) (in vivo [10]): 2960 ng·h/mL | AUC(0-inf) (in vivo [11]): 3000 ng·h/mL | MRT (in vivo [12]): 2.76 h | bioavailability (in vivo [13]): 121% | Cmax (in vivo [14]): 7.86 ng/mL | AUC(0-t) (in vivo [15]): 5.39 ng·h/mL | MRT (in vivo [16]): 0.51 h | bioavailability (in vivo [17]): 0.44%
